Measurements from patent US5036097A, “Phenylbutyl nitrone compositions and methods for prevention of gastric ulceration” (Oklahoma Medical Research Foundation, priority 1990, dated 1991).
“Also recorded” adds a separate entry of the source.

Assays:
[1] = tested on: Xanthine dehydrogenase (XDH) and oxidase (XO); assay: gastric xanthine dehydrogenase and oxidase activity; type: in vivo, rat; details: whole stomach, piroxicam treated
Procedure: MEASUREMENT OF GASTRIC XANTHINE OXIDASE ACTIVITY. Xanthine dehydrogenase (XDH) and oxidase (XO) activities are measured in whole stomach from piroxicam-treated and vehicle-treated rats, using methods reported by Parks, et. al. […]. 254 (Gastrointest Liver Physiol 17): […]-[…] (1988). The artifactual conversion of XDH to XO is minimized by quickly removing stomachs from rats that were anesthetized with 50 mg/kg sodium pentobarbital and still breathing spontaneously. After gastrectomy, the rats are euthanized by cutting the abdominal aorta. Stomachs are quickly rinsed in an ice cold homogenizing buffer consisting of 50 mM potassium phosphate buffer, pH 7.0, containing 10 mM dithiothreitol (DTT), 1 mM phenylmethylsulfonyl fluoride (PMSF) and 0.1 mM EDTA. The stomach is then immediately immersed in liquid nitrogen and ground to a fine powder under liquid nitrogen using a mortar and pestle. About 0.5 g of frozen powder is added to 5 ml of homogenizing buffer and centrifuged 40,000 g for 30 min. The supernatant is decanted and microfuged for an additional 10 min. […] To increase reaction rates activity was measured at 30 rather than 25° C. […] XO is assayed in the absence in NAD+, while XDH+XO activity is measured in the presence of 500 μM NAD+. […] The extent of XDH conversion (% XO) is calculated from XO activity divided by XDH+XO activity.

gastric ulceration = assay: NSAID-induced gastric ulceration in rats (surface area of ulceration); type: in vivo, rat (male Sprague-Dawley); details: 4 h
Procedure: Male Sprague-Dawley rats (Charles River, Wilmington, Mass.) weighing 300-325 g were housed individually in wire bottomed cages to prevent ingestion of hair and feces. […] Piroxicam or aspirin and other NSAIDS were suspended in a vehicle of 1% carboxymethylcellulose, 0.1% Tween 80 and 0.15 M HCl, and administered in a volume of 1 ml on the morning of study by oral gavage using an 18 gauge curved blunt needle (Popper and Sons, New Hyde Park, N.Y.). One ml of vehicle alone was administered for control experiments. HCl was added to the vehicle to insure an acid environment in the stomach in all studies. […] Four hours after the administration of NSAID or vehicle, rats were euthanized with sodium pentobarbital (100 mg/kg IP), and the surface area of ulceration per stomach was quantitated using morphometric techniques. Stomachs were removed, the lumen was exposed by an incision along the radius of greater curvature, and the stomach was washed in phosphate buffered saline. The luminal surface was laid out on a flat surface with gross folds removed by gentle distension. The percentage of surface involved with submucosal hemorrhage was then determined by point counting, as described by Weibel, E. R. Stereological Methods: Practical Methods for Biological Morphometry. […] This was done by tabulation of the percentage of points over ulcerations using a point counting eyepiece graticle (16×16 points in a square format). At the 12X magnification used on the Wild dissecting microscope (Wild-Heerbrugg, Basel, Switzerland), the graticle covered a 1 cm^2 area of the surface. Four to five non-overlapping sampling sites were taken to fully cover the exposed surface. To determine the total luminal surface area, the outline of the outer boundary of the stomach was traced using a transparent acetate sheet, and the area was determined from planimetry. The surface area of ulcerated regions per stomach was then determined by multiplying the surface density of ulceration regions by the luminal surface area of the stomach.
Differences in total luminal surface area in cm^2, surface area of ulcerated regions per stomach and biochemical analyses between each treatment intervention and its corresponding untreated control group are compared using the Mann-Whitney U Test, Dixon, W. J., Massey, F. J., Jr. Introduction to statistical methods, 4th edition. […] In vitro studies are compared using the Student's unpaired T-test, Dixon, W. J., Massey, F. J., Jr. Introduction to statistical methods, 4th edition. […] Values are expressed as mean±SEM. Significance is assumed when P<0.05.
Phenyl N-tert-butyl nitrone is obtained from Aldrich Chemicals, Milwaukee, Wis. All other chemicals and pharmaceuticals are from Sigma Chemical.

prostaglandin synthesis = details: cited from earlier work
[2] = tested on: gastric biopsies (lipid peroxidation); assay: lipid peroxidation in stomachs (thiobarbituric acid reactivity of gastric punch biopsies); type: in vivo, rat; details: 4 h after piroxicam, P<0.05 vs vehicle (0.075±0.004)
Text: MEASUREMENT OF LIPID PEROXIDATION IN STOMACHS. Lipid peroxidation is studied in piroxicam-and vehicle-treated rat stomachs by measuring thiobarbituric acid (TBA) reactivity of gastric punch biopsies by the method of Buege and Aust Buege, J. A., Aust, S. D. Methods Enzymol 51:302-310 (1978). Four hours after piroxicam or vehicle, stomachs are opened along the radius of greater curvature, washed with ice cold normal saline, and spread along a flat surface with lumens exposed. Five punch biopsies from mucosal through serosal surfaces are taken from each stomach using a 3 mm diameter skin biopsy punch. Biopsies are taken over ulcers in piroxicam treated stomachs and randomly over gastric rugae (where ulcers occur) in vehicle control stomachs. Biopsies from each stomach are combined, homogenized on ice in 1 ml of cold 1.15% KCl, and mixed with 2 ml of TBA reagent (0.375% thiobarbituric acid and 15% trichloroacetic acid in 0.25 HCl, to which 0.01% butylated hydroxytoluene is added just prior to use). After incubation at 100° C. for 15 minutes, the mixture is cooled and centrifuged at 1,500 g for 10 min. The absorbance of the supernatant is measured at 532 nm, and results expressed as […] per stomach.

CN1C(C(=O)Nc2ccccn2)=C(O)c2ccccc2S1(=O)=O [piroxicam]
XO as % of total XDH+XO activity [1]: 45±3% | total XDH+XO activity ([1]; vehicle 31.6±2.45 mU/g): 30.5±1.6 mU/g | gastric ulceration, in words (gastric ulceration; oral gavage, 23 mg/kg piroxicam, vs vehicle, 23 mg/kg): prominent ulceration along the ridges of gastric rugae; also recorded: consistently produced ulceration; also recorded: profound gastric ulceration | mean ulceration in piroxicam-treated control stomachs (gastric ulceration; piroxicam 23 mg/kg p.o., absence of an intervention): 0.215 cm^2 | inhibition of prostaglandin synthesis (prostaglandin synthesis): relative weak reversible inhibitor | thiobarbituric acid reactivity, A532 [2]: 0.104±0.010 A532
